Data published in patent US20080318268A1, “Devices and Methods for the Selection of Agents with Efficacy Against Biofilm” (priority 2005, published 2008).
Entries after “also recorded” stand apart in the source; their conditions may differ. Like-named read-outs stand apart in the source and are kept apart here.

Tests used:
Type in all cases: cell-based
[1] = system: planktonic Candida cells; assay: Planktonic antifungal sensitivity of Candida spp.; settings: all species tested
Procedure: (§1) Three clinical isolates of Candida were used in this study, including one albicans and two non-albicans species. C. albicans ATCC 14053 was obtained from the University Of Calgary, Department Of Biological Sciences. C. tropicalis 99916 and C. glabrata 14326 were obtained from the dialysate of patients undergoing continued ambulatory peritoneal dialysis (CAPD). Aspergillus fumigatus was also tested.
(§2) Biofilm susceptibility testing uses the pegged lid of the assembly, now containing biofilms formed after rocking in the tray for 24 hour. Each peg on the lid was gently washed once in 200 μl of phosphate buffered saline solution (PBSS) in a 96-well microtiter plate (Falcon). The pegged lid was then transferred to another 96 well microtiter plate containing 2 fold dilutions antifungal agent in 200 μl of RPMI 1640 (Sigma, St. Louis, Mo.) or RPMI 1640 containing 1% DMSO (see test drug section). After the pegs were exposed to the drugs for 24 hours, the pegged lid was removed and gently rinsed twice in saline. The pegged lid was then placed on a 96 well plate containing RPMI 1640 recovery medium. The pegs were sonicated for 5 minutes (Candida spp.) or 7 minutes (Aspergillus) in an ultrasonicator to dislodge adherent cells into the recovery medium. Aliquots of 20 μl of the recovery medium were spot plated on SDA (Candida spp) or Rose Bengal Agar (A. fumigatus) to obtain the MBEC. The assembly was also used to determine the minimum inhibitory concentration (MIC) and minimum fungicidal concentration (MFC). The turbidity of the wells that contained the antibiotic and planktonic cells which were shed from the biofilm was measured at 650 nm to obtain the MIC. A 20 μl sample from each well was also spot plated onto Sabouraud Dextrose agar (Candida spp) or Rose Bengal Agar (A. fumigatus) to obtain the MFC.
Minimum Inhibitory Concentrations (MIC) and Minimum Fungicidal Concentrations (MFC) were determined according to the guidelines of the National Committee for Clinical laboratory Standards (NCCLS). Briefly, Candida sp. were maintained on polystyrene spheres at −70° C. until plating. These organisms were streaked onto Sabouraud Dextrose agar (Microbiologie) plates 24 hours before test initiation. The 24 hour colonies were picked from the agar plates and placed in Muellar-Hinton Broth (MHB, Microbiologie) such that the turbidity matched a McFarland standard of 0.5. This was then diluted 1:10 in MHB to obtain a suspension of approximately 1×10^5 to 5×10^5 CFU/ml. A 5 μl volume of this suspension was added to wells containing 200 μl of antifungal agent serially diluted in RPMI 1640 media (Sigma) in a 96 well microtiter plate (Nunclon). A. fumigatus was maintained as a spore suspension at 4° C. until testing. The spore suspension (50 μl) was diluted into 250 ml of TSB, and 5 μl of this suspension was added to each test well containing dilution of antifungal agent as above.
The test wells were then incubated at 37° C. for 24 hours with the antifungal drugs. MICs for Candida were obtained after incubation by reading the turbidity at 650 nm on a microtiter plate reader (Softmax, VWR). A 20 μl aliquot of each well was also plated (SDA) and MFCs obtained from them after 24 hours incubation at 37° C. MFCs were determined for Aspergillus by plating 100 μl from each well onto Rose Bengal Agar, followed by spreading with a sterile glass spreader. The plated organisms were maintained at 25° C. for three days before colony enumeration.
Drugs tested. Itraconazole, Fluconazole, and Ketoconazole were obtained from Janssen Pharmaceuticals in Brussels, Belgium. Nystatin 5-Fluorocytosine, Griseofulvin, Amphotericin B and Polymyxin B were obtained from Sigma Chemical Co, St. Louis, Mo. 5-Fluorocytosine, polymyxin B sulphate and nystatin were dissolved in double-distilled water to a concentration of 10.24 mg/ml and diluted in the test wells through a range of 1024 μg/ml to 0.125 μg/ml in RPMI. […]

[2] = system: Pseudomonas aeruginosa (Ps) planktonic bacteria; assay: MBEC assay, planktonic Ps isolates (Example 5)
[3] = system: Pseudomonas aeruginosa (Ps) biofilm; assay: MBEC assay, Ps biofilms (Example 5); settings: number of resistant isolates; 12 isolates from Cystic Fibrosis patients; exposed 24 hours
[4] = system: planktonic P. aeruginosa; assay: Pseudomonas aeruginosa biofilm assay kit, planktonic MIC reading of challenge plate (Example 8); settings: challenge 24 hours at 35° C.; breakpoint concentrations
[5] = system: P. aeruginosa biofilm; assay: Pseudomonas aeruginosa biofilm assay kit, biofilm MBEC reading of recovery plate (Example 8); settings: challenge 24 hours at 35° C.; recovery 20 to 24 hours; breakpoint concentrations
[6] = system: Staphylococcus aureus (Staph) planktonic bacteria; assay: MBEC assay, planktonic Staph isolates (Example 5); settings: number of resistant isolates; 12 isolates from device associated infections; exposed 24 hours
[7] = system: planktonic Staphylococcus aureus; assay: Staphylococcus test plate, planktonic forms (Example 9); settings: breakpoint concentrations, number in the label is the concentration tested
[8] = system: Candida biofilms; assay: Minimum biofilm eradication concentration assay, Candida spp. biofilms; settings: biofilm (sessile) Candida
Procedure: as §1
Biofilm formation and measurement of antimicrobial sensitivity of Candida and Aspergillus biofilms were performed using an assembly of the present invention. The device features a microtiter plate lid with 96 pegs or projections distributed on the lid. Each peg provided the surface for microorganism to adhere, colonize and form a uniform biofilm. The pegs fit precisely into the wells of a standard 96-well microtiter plate. The lid was used in conjunction with a base having special troughs for growing, washing, and incubating fungi. Colonies of Candida sp. were picked from 24 hour cultures on Sabouraud Dextrose agar (SDA) (BBL Microbiological Systems, Cockeysville, Md.) and placed into Mueller-Hinton Broth (MHB) (Difco Laboratories, Detroit Mich.) such that the suspension matched a McFarland standard of 1.0. This suspension was then diluted 1:30 in MHB, and 25 ml were pipetted into the trough chamber of the base. The closed assembly (lid with pegs positioned on the base) was placed on a Hoeffer Red Rocker (VWR, Scientific) set to rock the plates 3.5 cycles per minute in a 37° C. incubator. C. albicans and C. tropicalis were incubated aerobically, while C. glabrata was incubated in 10% CO2. It was determined in preliminary experiments that C. glabrata required 10% CO2 atmosphere for biofilms to form.
as §2
Drugs tested. Itraconazole, Fluconazole, and Ketoconazole were obtained from Janssen Pharmaceuticals in Brussels, Belgium. Nystatin 5-Fluorocytosine, Griseofulvin, Amphotericin B and Polymyxin B were obtained from Sigma Chemical Co, St. Louis, Mo. […]

[9] = system: Staphylococcus aureus (Staph) biofilm; assay: MBEC assay, Staph biofilms (Example 5); settings: number of resistant isolates; 12 isolates from device associated infections; exposed 24 hours
[10] = system: Staphylococcus aureus biofilm; assay: Staphylococcus test plate, biofilm forms (Example 9); settings: breakpoint concentrations; number in the label is the concentration tested
[11] = number of resistant isolates, 12 isolates from Cystic Fibrosis patients, exposed 24 hours

| Molecule | effectiveness in killing planktonic Candida cells [1] | Ps resistance to individual antibiotics and antibiotic combinations, Planktonic [2, 11] | Ps resistance to individual antibiotics and antibiotic combinations, Biofilm [3] | Number of P. aeruginosa isolates resistant to individual antibiotics and antibiotic combinations, Planktonic [4] | Number of P. aeruginosa isolates resistant to individual antibiotics and antibiotic combinations, Biofilm [5] | other results |
| --- | --- | --- | --- | --- | --- | --- |
| Nc1nc(=O)[nH]cc1F [5-fluorocytosine, 5-Fluorocytosine] | effective |  |  |  |  |  |
| CC(C)(O/N=C(\C(=O)N[C@@H]1C(=O)N2C(C(=O)[O-])=C(C[n+]3ccccc3)CS[C@H]12)c1csc(N)n1)C(=O)O [CFTZ, ceftazidime] |  | 3 | 12 | 3 | 12 |  |
| O=C(O)c1cn(C2CC2)c2cc(N3CCNCC3)c(F)cc2c1=O [CIPRO, ciprofloxacin] |  |  |  | 4 |  | Staph resistance to individual antibiotics and antibiotic combinations, Planktonic [6]: 10; Ps resistance to individual antibiotics and antibiotic combinations, Planktonic [2]: 4; Number of Staphylococcus aureus isolates resistant to individual antibiotics and antibiotic combinations, Planktonic [7]: 7 |
| NCC[C@H](O)C(=O)N[C@@H]1C[C@H](N)[C@@H](O[C@H]2O[C@H](CN)[C@@H](O)[C@H](O)[C@H]2O)[C@H](O)[C@H]1O[C@H]1O[C@H](CO)[C@@H](O)[C@H](N)[C@H]1O [AK, amikacin] |  | 8 | 11 | 8 | 11 |  |
| C[C@H]1[C@H](NC(=O)/C(=N\OC(C)(C)C(=O)O)c2csc(N)n2)C(=O)N1S(=O)(=O)O [AZTR, aztreonam] |  |  |  | 0 |  | Ps resistance to individual antibiotics and antibiotic combinations, Planktonic [2]: 0 |
| COC1=CC(=O)C[C@@H](C)[C@]12Oc1c(Cl)c(OC)cc(OC)c1C2=O [Griseofulvin] | ineffective |  |  |  |  | effectiveness against Candida growing as a biofilm [8]: ineffective |
| CN[C@H](CC(C)C)C(=O)N[C@H]1C(=O)N[C@@H](CC(N)=O)C(=O)N[C@H]2C(=O)N[C@H]3C(=O)N[C@H](C(=O)N[C@H](C(=O)O)c4cc(O)cc(O)c4-c4cc3ccc4O)[C@H](O)c3ccc(c(Cl)c3)Oc3cc2cc(c3O[C@@H]2O[C@H](CO)[C@@H](O)[C@H](O)[C@H]2O[C@H]2C[C@](C)(N)[C@H](O)[C@H](C)O2)Oc2ccc(cc2Cl)[C@H]1O [VAN, vancomycin] |  |  |  |  |  | Staph resistance to individual antibiotics and antibiotic combinations, Planktonic [6]: 6; Staph resistance to individual antibiotics and antibiotic combinations, Biofilm [9]: 12; Number of Staphylococcus aureus isolates resistant to individual antibiotics and antibiotic combinations, Planktonic ([7]; listed as VAN2): 5; Number of Staphylococcus aureus isolates resistant to individual antibiotics and antibiotic combinations, Planktonic ([7]; listed as VAN4): 1; Number of Staphylococcus aureus isolates resistant to individual antibiotics and antibiotic combinations, Biofilm [10]: 12 |
| CCC[C@@H]1C[C@@H](C(=O)N[C@@H]([C@H]2O[C@H](SC)[C@H](O)[C@@H](O)[C@H]2O)[C@H](C)Cl)N(C)C1 [CLIN, clindamycin] |  |  |  |  |  | Staph resistance to individual antibiotics and antibiotic combinations, Planktonic [6]: 9; Number of Staphylococcus aureus isolates resistant to individual antibiotics and antibiotic combinations, Planktonic ([7]; listed as CLI1): 8; Number of Staphylococcus aureus isolates resistant to individual antibiotics and antibiotic combinations, Planktonic ([7]; listed as CLI4): 5 |
| C[C@@H](O)[C@H]1C(=O)N2C(C(=O)O)=C(SCCN=CN)C[C@H]12 [IMP, imipenem] |  | 12 | 12 | 12 | 12 |  |
| Polymyxin B | ineffective |  |  |  |  | effectiveness against Candida growing as a biofilm [8]: ineffective |
| C[C@@H]1[C@H](O)[C@@H](C)/C=C/C=C/CC/C=C/C=C/C=C/C=C/C(O[C@H]2O[C@H](C)[C@@H](O)[C@H](N)[C@@H]2O)CC2O[C@](O)(CC(O)C(O)CCC(O)CC(O)CC(O)CC(=O)O[C@H]1C)CC(O)C2C(=O)O (stereo partly drawn) [nystatin, Nystatin] | effective |  |  |  |  | effectiveness against Candida growing as a biofilm [8]: effective; also recorded: most effective agents |
| CC(=O)N1CCN(c2ccc(OCC3COC(Cn4ccnc4)(c4ccc(Cl)cc4Cl)O3)cc2)CC1 (stereo not drawn) [ketoconazole, Ketoconazole] | effective |  |  |  |  |  |
| Colistin [CLO] |  | 2 | 12 | 2 | 12 |  |
| NC[C@H]1O[C@H](O[C@H]2[C@H](O)[C@@H](O[C@H]3O[C@H](CO)[C@@H](O)[C@H](N)[C@H]3O)[C@H](N)C[C@@H]2N)[C@H](N)C[C@@H]1O [TB, tobramycin] |  | 3 | 12 | 3 | 12 |  |
| Cc1nnc(SCC2=C(C(=O)O)N3C(=O)[C@@H](NC(=O)Cn4cnnn4)[C@H]3SC2)s1 [CFZ, cefazolin] |  |  |  |  |  | Staph resistance to individual antibiotics and antibiotic combinations, Planktonic [6]: 2; Number of Staphylococcus aureus isolates resistant to individual antibiotics and antibiotic combinations, Planktonic ([7]; listed as CFZ4): 4; Number of Staphylococcus aureus isolates resistant to individual antibiotics and antibiotic combinations, Planktonic ([7]; listed as CFZ8): 6 |
